How the values were obtained:
[1] = system: matrix-displayed aptamer (SEQ ID NO:11) on Biacore SA chip; assay: Biacore SPR: loading and release from aptamer-coated SA chip; type: binding
Protocol: For SPR experiments, Biacore X system and commercially available Biacore SA sensor chips from Biacore AB (Uppsala, Sweden) were used.
A 1 μM solution of aptamer aptamer 5′-/5BioTEG//iSp18//iSp18/ATCTCGGTCTCGGGACGACAGGATTTTCCTCAATGAAGTGGGTCGTCCCGAGA (SEQ ID NO:11) in 10 mM HEPES at pH 7.4, 150 mM NaCl, and 3 mM EDTA (in HBS-EP) was applied to one of the SA sensor chip's two channels for 20 min at 4 μL min^−1, followed by a 120 sec wash with 4 M urea/15 mM EDTA to remove any nonspecifically adsorbed material. The aptamer used for these SPR experiments was shorter by two bases relative to the aptamer used in the microsphere experiments (see SEQ ID NO:7). According to the Biacore SA chip literature, the matrix was a highly irregular 3D dextran hydrogel recognition matrix with a height of approximately 100-200 nm and an uneven distribution of streptavidin. The matrix was coated with biotinylated aptamer containing two 18-atom hexaethylene glycol spacers between the biotin and the oligonucleotide. On the basis of changes in SPR response, the aptamer was coated at saturation densities of 0.12-to-0.15 pmol mm^−2, an estimated average inter-aptamer distance of 10-to-11 nm (based on a 100 nm height for the dextran layer. 1.2-to-1.6 molecules of insulin-conjugate bound per aptamer on initial loading, with oligonucleotide binding (i.e. no insulin attached) at 1.2 per aptamer. Where possible, the channel with no aptamer or insulin-conjugate/oligonucleotide deposited acted as a blank for correction of system influence. When the additional channel was not able to be used as a blank, data for the first 10 minutes of any buffer change was omitted due to artifacts occurring in this time period caused by washes with the new buffer.
Matrix-Aptamer Hybridization with (5). (5) 1 μM in NaCl (140 mM), KCl (5 mM), and MgCl2 (1.2 mM), buffered to pH 7.4 with Tris (20 mM), was dispensed on the aptamer displaying channel at 1 μL min^−1 until saturation (80 min), with the other channel used as a system influence control when possible. Monitoring of conjugate (5) release was taken 15 minutes after the end of the conjugate (5) application time to allow for weak non-specifically bound conjugate to be washed from the surface. Conjugate dissociation in real time was measured through the decrease in mass, again using the formula 1000 R.U.=[…]. In some experiments, instrumental instabilities were observed as occasional spikes in sensorgrams during long-time monitoring.
Release of the insulin-conjugate (i→ii in FIG. 1A) was studied in two different systems: 1) release from a dextran matrix (SA-Chip, Biacore), under continuous flow, with surface plasmon resonance (SPR) monitoring, and 2) release from the surface of non-porous beads followed by fluorescence monitoring. […]

[2] = system: aptamer (SEQ ID NO:7) functionalized microspheres loaded with conjugate (5); assay: Triggered release of insulin conjugate (5) from aptamer coated microspheres, fluorescence monitoring
Protocol: (for a biotin binding site:aptamer ratio of 5:1) Streptavidin functionalized magnetic microspheres (Bangs Laboratories), 2 mL, were washed with HEPES 10 mM/NaCl 150 mM/pH 7.4 buffer 3×2 mL, using a magnet to separate out the microspheres from the washings. The microspheres were suspended in 1 mL of the same buffer. The aptamer 5′-/5BioTEG//iSp18//iSp18/ATCTCGGTCTCGGGACGACAGGATTTTCCTCAATGAAGTGGGTCGTCCCGAGACC-3′ (SEQ ID NO:7) (IDT, Coralville, Iowa, USA), 2 nmoles, was dissolved in 10 mL of the buffer and added slowly drop-wise to the microsphere suspension under continuous shaking. The mixture was incubated for one hour and then washed 3×, once with a 1 mL volume then twice with 200 μL volumes after transfer to a 1.5 mL microcentrifuge tube. The washed microspheres were resuspended in 1 mL of buffer and stored at 4° C. until use. For a biotin binding site:aptamer ratio of 1:1, i.e. saturated, 800 μL of microspheres were prepared as above, with the exception that they were resuspended in 400 uL of buffer with 8 nmoles of aptamer then added.
Aptamer functionalized microspheres (200 uL containing 0.4 nmoles of aptamer were washed 1×200 μL of binding buffer and then resuspended in 100 μl of the same buffer. The insulin-PEO12-oligonucleotide conjugate in 0.5 nmoles, in 37 μL of water, was added to the suspension and incubated, with constant mixing by inversion, overnight at room temperature, protected from light.
All release experiments were carried out in water containing NaCl (140 mM), KCl (5 mM), and MgCl2 (1.2 mM), buffered to pH 7.4 with Tris (20 mM). Streptavidin coated microspheres were mixed with biotinylated aptamer to obtain aptamer coated microspheres, see above for detailed preparation. […] On addition of six micromolar quinine at three and one half hours an additional pulse with analogous characteristics of the first pulse was observed. A third analogous pulse can be triggered using eighteen micromolar quinine. […]

cocaine aptamer MNS-1 = assay: Fluorescence screening of FDA approved drugs against fluorescein-labeled aptamer MNS-1 with DABCYL quencher oligonucleotide 1-Q; type: binding; settings: 20 mM Tris-HCl pH 7.4, 50 nM MNS-1, 150 nM 1-Q, 30 min incubation
Protocol: Oligonucleotides MNS-1 and 1-Q were custom-made and HPLC purified by Integrated DNA Technologies, Inc (Coralville, Iowa, USA) and were used as received. The base sequence for MNS-1 is: 5′-fluorescein-ATCTCGGGACGACAGGATTTTCCTCAATGAAGTGGGTCGTCCC (SEQ ID NO:4), and 1-Q is: 5′-GTC GTC CCG AGA T-dabcyl (SEQ ID NO:5). All compounds (except cocaine) were purchased from Sigma-Aldrich Co. (St. Louis, Mo., USA). All measurements were performed in 20 mM Tris-HCl pH 7.4, 140 mM NaCl, 5 mM KCl, 2 mM MgCl2. Mixture of MNS-1 and 1-Q was incubated for 5 min at room temperature, then a series of standard dilutions of all compounds were added to the mixture solutions of MNS-1 and 1-Q to final concentrations of 50 nM and 150 nM respectively. Measurements were performed after an incubation time of 30 min. The measurements were performed on a Perkin-Elmer Victor II microplate reader (Wallac, Finland) with a 485-nm excitation filter and a 535-nm emission filter. […]

Spiegelmer (L-MNS) = Spiegelmer (L-MNS) binding of quinine; settings: same conditions as MNS-1/1-Q
From the text: ) binding of quinine. […] from ChemGenes (Wilmington, Mass.). Note that the sequence and label are same as mns-1, 1-Q, measurement conditions and concentrations were also the same (see FIG. 4, and Materials and Methods section in Example section 6). […] Oligonucleotides MNS-1 and 1-Q were custom-made and HPLC purified by Integrated DNA Technologies, Inc (Coralville, Iowa, USA) and were used as received. The base sequence for MNS-1 is: 5'-fluorescein-[NT] ID NO:4), and 1-Q is: 5'-[NT]-dabcyl (SEQ ID NO:5). […] (St. Louis, Mo., USA). All measurements were performed in 20 mM Tris-HCl pH 7.4, 140 mM NaCl, 5 mM KCl, 2 mM MgCl2. […] Measurements were performed after an incubation time of 30 min. The measurements were performed on a Perkin-Elmer Victor II microplate reader (Wallac, Finland) with a 485-nm excitation filter and a 535-nm emission filter.

[3] = system: rat hepatoma cell insulin signaling pathways (McA-RH7777); assay: Tissue culture and insulin signaling assay; type: cell-based; settings: 100 nM for 10 min, McA-RH7777 cells, in triplicate
Protocol: McA-RH7777, rat hepatoma cells were grown in DMEM media with 20% fetal bovine serum. Cells were incubated in serum-free medium for 5 hours and treated with insulin and insulin-oligonucleotide conjugate at the concentration of 100 nM for 10 min. Cell lysates were prepared in SDS lysis buffer (2% SDS, 62.5 mM Tris HCL (pH 6.8), 10% glycerol, 50 mM DTT, 0.01% Bromophenol Blue). All antibodies were purchased from Cell Signaling Technology (Danvers, Mass.).

“5′-TCTCGGGACGACCCACTTCATTG-3′ (TCTCGGGACGACCCACTTCATTG; listed as DNA, chemistry not given here) [oligonucleotide inhibitor]” was tested, and the “blocking of insulin-conjugate release in the presence of quinine” value ([1]; 1 μM inhibitor, SPR) was “block the release of the insulin-conjugate”.

In the case of `C[C@]12CCC(=O)C=C1CC[C@@H]1[C@@H]2[C@@H](O)C[C@@]2(C)[C@H]1CC[C@]2(O)C(=O)COC(=O)CCC(=O)O` [hydrocortisone-21-hemisuccinate (HHS), hydrocortisone-21-hemisuccinate], the “triggering of insulin conjugate release from microspheres” value ([2]; 250 μM, soaking for a total of 60 minutes) is reported as “sluggishly” and the “triggering of insulin conjugate release from microspheres” value ([2]; higher concentrations than 250 μM) is reported as “significant release of the conjugate”.

With `C=C[C@H]1C[N@@]2CC[C@H]1C[C@H]2[C@H](O)c1ccnc2ccc(OC)cc12` [quinine] the Kd (cocaine aptamer MNS-1) was roughly 600 nM, the “insulin-conjugate boluses by escalating quinine concentrations” value ([1]; 0, 2 and 8 μM quinine, or 1.5, 6 and 18 μM after pre-washing the chip, SPR) was “desired profile with three postprandial boluses” and the “binding to the spiegelmer of the aptamer” value (Spiegelmer (L-MNS)) was “bound to the spiegelmer of the aptamer”. For the same compound, the “triggered release of (5) from microspheres” value ([2]; two micromolar quinine, pH 7.4) was “a pulse of (5) was released”.

For “Fluorescein-5′-GTC GTC CCG AGA CCG AGA T-3′-L1-Insulin [insulin conjugate]”, the “line of best fit slope of initial rate data for dissociation” value ([1]; SA chip (Biacore), fitted from 15 to 25 minutes) was −0.1399 fmol mm^−2 min^−1, the “observed initial dissociation rate” value ([1]; SA chip (Biacore), no quinine) was 0.14 fmol mm^−2 min^−1 and the “activity of insulin conjugate on insulin signaling” value [3] was “full activity”.
